The source of these data is patent US20060167035A1, “Quinoline derivative, its use, production and pharmaceutical agents containing the latter” (priority 2004, published 2006).

By IC50 is commonly meant the concentration that inhibits the measured activity by half.

SMILES strings stand for the structures.

For the first assay, the target named is T1, recombinant EphB4 kinase (Homo sapiens, UniProt P54760).
T1 construct: purchased ProQinase GmbH, Freiburg, Germany
T1 sequence (P54760 16-987): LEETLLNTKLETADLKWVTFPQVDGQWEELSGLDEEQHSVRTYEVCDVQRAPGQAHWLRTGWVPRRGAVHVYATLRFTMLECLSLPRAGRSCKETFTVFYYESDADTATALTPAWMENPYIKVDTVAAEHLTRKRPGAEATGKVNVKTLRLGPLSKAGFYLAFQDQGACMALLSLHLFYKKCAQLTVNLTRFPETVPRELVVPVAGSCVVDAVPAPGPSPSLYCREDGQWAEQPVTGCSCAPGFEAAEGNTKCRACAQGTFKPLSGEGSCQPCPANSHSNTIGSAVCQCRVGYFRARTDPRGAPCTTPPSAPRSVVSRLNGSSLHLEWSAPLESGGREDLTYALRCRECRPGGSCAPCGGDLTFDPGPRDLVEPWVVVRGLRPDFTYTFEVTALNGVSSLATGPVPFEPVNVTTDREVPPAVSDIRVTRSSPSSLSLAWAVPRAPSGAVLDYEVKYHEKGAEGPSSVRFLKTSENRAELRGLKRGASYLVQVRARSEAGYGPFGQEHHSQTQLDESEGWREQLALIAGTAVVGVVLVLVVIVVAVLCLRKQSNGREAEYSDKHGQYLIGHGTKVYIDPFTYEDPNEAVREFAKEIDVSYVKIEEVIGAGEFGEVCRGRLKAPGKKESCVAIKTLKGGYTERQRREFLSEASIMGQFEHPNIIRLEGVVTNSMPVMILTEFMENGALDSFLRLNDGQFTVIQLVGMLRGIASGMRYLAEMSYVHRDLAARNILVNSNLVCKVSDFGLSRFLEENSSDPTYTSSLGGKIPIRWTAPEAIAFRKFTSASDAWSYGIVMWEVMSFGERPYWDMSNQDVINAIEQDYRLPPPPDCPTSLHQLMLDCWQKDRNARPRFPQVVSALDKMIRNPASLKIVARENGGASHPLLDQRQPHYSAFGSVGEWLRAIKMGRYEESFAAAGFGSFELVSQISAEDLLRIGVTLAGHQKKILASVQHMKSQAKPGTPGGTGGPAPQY
The experiment in a line: Test System for EphB4 (HTRF kinase assay). It counts as biochemical. Particulars: polyGluAlaTyr substrate, 2 μM ATP, HTRF readout, read-out: IC50 of EphB4 kinase inhibition. The method, then:
A mixture that consists of 20 ng/ml of recombinant EphB4 kinase (ProQinase GmbH, Freiburg, Germany), 2.67 μg/ml of polyGluAlaTyr, 2 μM of ATP, 25 mmol of HEPES (pH 7.3), 5 mmol of MgCl2, 1 mmol of MnCl2, 2 mmol of DTT, 0.1 mmol of NaVO4, 1% (v/v) of glycerol, 0.02% NP40, EDTA-free protease inhibitors (Complete Roche Company, 1 tablet in 50 ml) is incubated for 10 minutes at 20° C. Test substances are dissolved in 100% DMSO and introduced in a 0.017× volume before the reaction begins. 60 minutes after 1.7× volume of a solution of 50 mmol of Hepes, pH 7.0, 0.2% BSA, 0.14 μg/ml of PT66-Europium, 3.84 μg/ml of SA-XL665, 75 mmol of EDTA is added, the batch is measured in a Discovery HTRF measuring device of the PerkinElmer Company.
A general note: In TR-FRET formats the signal depends on donor and acceptor labels being close together.
With `Cc1nc2c(ccc3nccc(Nc4cc(O)ccc4C)c32)s1` [Example 2, 4-Methyl-3-(2-methyl-thiazolo[4,5-f]quinolin-9-ylamino)-phenol], the IC50 was 0.27 µM.

The assay is the same for the next values; noted with them: polyGluAlaTyr substrate, 2 μM ATP, HTRF readout, read-out: IC50 of EphB4 kinase inhibition (upper bound).
Consider `Cc1ccc(O)cc1Nc1ccnc2ccc3sccc3c12` [Example 1, 4-Methyl-3-(thieno[3,2-f]quinolin-9-ylamino)-phenol], for which the IC50 is less than 25 µM.
On the same count and under the same terms, the value for `Cc1nc2c(ccc3nccc(Nc4cc(O)ccc4C)c32)s1` [Example 2, 4-Methyl-3-(2-methyl-thiazolo[4,5-f]quinolin-9-ylamino)-phenol] was less than 25 µM.
The same measure, in the same setting: the result for `Cc1ccc(O)cc1Nc1ccnc2ccc3ccsc3c12` [Example 3, 4-Methyl-3-(thieno[2,3-f]quinolin-9-ylamino)-phenol] reads less than 25 µM.
Turning to `Cc1ccc(O)cc1Nc1ccnc2ccc3c(c12)CCS3(=O)=O` [Example 4, 3-(3,3-Dioxo-2,3-dihydro-1H-3λ^6-thieno[3,2-f]quinolin-9-ylamino)-4-methyl-phenol], the IC50 was less than 25 µM.
Still for that read-out and setting: the result for `O=S1(=O)CCc2c1ccc1nccc(Nc3cccc(O)c3)c21` [Example 5, 3-(3,3-Dioxo-2,3-dihydro-1H-3λ^6-thieno[3,2-f]quinolin-9-ylamino)-phenol] reads less than 25 µM; that for `Cc1ccc(Nc2ccnc3ccc4c(c23)CCS4(=O)=O)cc1O` [Example 15, 5-(3,3-Dioxo-2,3-dihydro-1H-3λ^6-thieno[3,2-f]quinolin-9-ylamino)-2-methylphenol], less than 25 µM.
